We go through one molecule from PMC12794274, “Therapeutic potential of Sheng-Xian-Tang in doxorubicin-induced chronic heart failure by regulation of phenylalanine metabolism disruption” (Chinese Medicine, 2026).

The structures appear in SMILES notation. Where “and” joins values, the source holds several entries; their conditions need not be identical. Equal entries are not always repeated.

One data set relates to phenylalanine metabolism. As to the kind of experiment: Phenylalanine and tyrosine levels in rat serum, liver and heart tissues (LC/MS). Format: in vivo. As to conditions: DOX-induced CHF rats, day 39. The method, then: Phenylalanine and tyrosine in the different rat bio-samples were analyzed by LC/MS using an Agilent 1290 Ultra high-performance liquid chromatography (UHPLC) and an Agilent 6460 triple-quadrupole tandem mass spectrometer (QQQ-MS) (Agilent Inc, USA). Data were acquired by using an Agilent Zorbax SB-C18 column (3.0 × 150 mm, 5 μm) as described previously.

Data set [1] concerns AML12 cells. Kind of data set: AML12 cell viability (CCK8). The data set is classed as cell-based. How it is done: (§1) Mouse hepatocellular cell lines (AML12), purchased from the Shanghai Cell Bank of Chinese Academy of Sciences (Shanghai, China), were cultured in Dulbecco’s Modified Eagle Medium (DMEM) supplemented with 10% fetal bovine serum (FBS) and 2 mM L-glutamine and 1% pyruvate and maintained at 37 °C in a […], 5% CO2 incubator. Cells were seeded at a density of 5 × 10^5 cells/well in 6-well plates. […] Cells’ survival rate was detected by Cell Counting Kit-8 (CCK8) Reagents (Thermo Scientific, Singapore).

Data set [2] relates to cardiac tissues of DOX-induced CHF rats. As to the kind of experiment: Heart histopathology (H&E, Masson) and TUNEL apoptosis detection. The conditions noted are these: DOX group. Format: in vivo, rat. The method, then: Cardiac tissues were fixed in 4% paraformaldehyde, embedded in paraffin, and sectioned at 4–5 μm thickness. Hematoxylin and eosin (H&E) staining was performed to assess histopathological changes, while Masson’s trichrome staining was used to evaluate cardiac fibrosis. Apoptosis in cardiac tissues was detected using a TUNEL assay kit (C1088, Beyotime, Shanghai, China).

The test system of a further data set is DOX-induced CHF rats. Kind of data set: Serum biochemical parameters (BNP, CK, LDH, ALT, AST) by ELISA kits. Format: in vivo, rat. The conditions noted are these: DOX group, experiment I. How it is done: Serum biochemical parameters including brain natriuretic peptide (BNP), creatine kinase (CK), lactate dehydrogenase (LDH), alanine aminotransferase (ALT), and aspartate aminotransferase (AST) were measured using commercial ELISA kits (Nanjing Jiancheng Bioengineering Institute, Nanjing, China) according to the manufacturer's instructions. Superoxide dismutase (SOD), and malondialdehyde (MDA) levels in liver and heart tissues were measured using assay kits from […] Biotechnology (Changsha, China). Phenylalanine and tyrosine concentrations in the cell were determined using an ELISA kit from Abmart (Shanghai, China).

In data set [3] the test system is DOX-induced chronic heart failure (CHF) rat model. As to the kind of experiment: Echocardiography (LVEF%, LVFS%) in DOX-induced CHF rats. The data set is classed as in vivo. As to conditions: DOX group, cumulative 15 mg/kg, day 39. The method, then: Experiment I, 48 rats were randomly divided into six groups: (1) the CON group; (2) the DOX group; (3) the DOX + enalapril (ENP, positive control, 1.8 mg/kg) group; (4) the DOX + SXT at low dose group (4 g/kg); (5) the DOX + SXT at middle dose group (8 g/kg); and […] the DOX + SXT at high dose group (16 g/kg). Except those rats in the CON group, the remaining rats received DOX at a 2.5 mg/kg per injection to a cumulative dose of 15 mg/kg. The dose of SXT for the low-dose group was set at 4 g/kg, based on the minimum human clinical daily dose (48.5 g, Table S2) converted to an equivalent rat dose using body surface area normalization (48.5 g/70 kg × 6.3 ≈ 4.4 g/kg, rounded to 4 g/kg). To evaluate a clear dose–response relationship, the medium and high doses were established at 8 g/kg and 16 g/kg, respectively, corresponding to 2 fold and 4 fold the low dose. This gradient dosing strategy is consistent with the Technical Guidelines for Pharmacodynamic Studies of Traditional Chinese Medicine and the Technical Guidelines for General Pharmacology Studies of Traditional Chinese Medicine and Natural Drugs, and is further supported by our previous study on the effective dose range of SXT in a rat model of doxorubicin-induced chronic heart failure. Heart function was monitored by echocardiography analysis at day 39, and the CHF model was considered to be successfully established when the left ventricular ejection fraction (LVEF%) values were reduced to 50%. Urinary samples were collected at five time points (0, 10, 20, 30, and 39 d), while fecal samples were collected before the rats were euthanized. Subsequently, the rats were anesthetized, and blood samples and heart and liver tissues were collected. All bio-samples were stored at − 80 °C until analysis.
Experiment II was conducted to specifically confirm the exacerbated cardiac abnormality of phenylalanine in the DOX-induced CHF rats. […] Heart function was detected as in the experiment I.
Echocardiographic (ECG) measurements were performed using M-mode tracings and continuous Doppler with a Vevo 2100 system (Visual Sonics, Toronto, ON, Canada). Rats were anesthetized with isoflurane prior to imaging. Cardiac function indices including left ventricular ejection fraction (LVEF%) and left ventricular fractional shortening (LVFS%) were measured and recorded.

Another data set in a line: Rat body weight. The data set is classed as in vivo. The conditions noted are these: DOX group vs CON group, experiment I. The method, then:
Experiment I, 48 rats were randomly divided into six groups: (1) the CON group; (2) the DOX group; (3) the DOX + enalapril (ENP, positive control, 1.8 mg/kg) group; (4) the DOX + SXT at low dose group (4 g/kg); (5) the DOX + SXT at middle dose group (8 g/kg); and […] the DOX + SXT at high dose group (16 g/kg). Except those rats in the CON group, the remaining rats received DOX at a 2.5 mg/kg per injection to a cumulative dose of 15 mg/kg. The dose of SXT for the low-dose group was set at 4 g/kg, based on the minimum human clinical daily dose (48.5 g, Table S2) converted to an equivalent rat dose using body surface area normalization (48.5 g/70 kg × 6.3 ≈ 4.4 g/kg, rounded to 4 g/kg). To evaluate a clear dose–response relationship, the medium and high doses were established at 8 g/kg and 16 g/kg, respectively, corresponding to 2 fold and 4 fold the low dose. […] Heart function was monitored by echocardiography analysis at day 39, and the CHF model was considered to be successfully established when the left ventricular ejection fraction (LVEF%) values were reduced to 50%. […]

Data set [4] has as its system AML12 cells. The data set is classed as cell-based, mouse. The method, then: as §1
For data set [5], the system named is phenylalanine hydroxylase (PAH). Kind of data set: PAH expression in liver and heart (western blotting, immunofluorescence). Format: in vivo, rat. How it is done: Immunofluorescence staining was performed on tissue sections to detect phenylalanine hydroxylase (PAH), prostaglandin-endoperoxide synthase 2 (PTGS2), and reactive oxygen species (ROS). Primary antibodies against PAH and PTGS2 were used, while ROS was detected using the DCFH-DA probe. Nuclei were counterstained with DAPI. Images were captured using a fluorescence microscope.
Protein was extracted from liver or heart tissue samples (30 mg) using lysis buffer. Total protein concentration was determined using a BCA protein assay kit (Thermo Fisher Scientific, USA). Equal amounts of protein from each sample were separated on 10–12% SDS-PAGE gels and transferred to PVDF membranes. Membranes were blocked with quick blocking buffer for 30 min, then incubated with anti-PAH primary antibody (1:1000 dilution) overnight at 4 °C. After washing, membranes were incubated with a secondary antibody for 1 h at 37 °C. Protein bands were visualized using an Odyssey infrared imaging system (JS-1070, Shanghai Peiqing Science & Technology Co., Ltd, China). Band intensities were quantified using ImageJ software.

A further data set deals with heart tissues. As to the kind of experiment: Transmission electron microscopy of heart tissue. The conditions noted are these: experiment II; DOX alone, co-treatments vs DOX. Format: in vivo, rat. The method, then:
Freshly excised heart tissues were immediately fixed in 2.5% glutaraldehyde at 4 °C overnight. After washing with 0.1 M cacodylate trihydrate buffer, samples were post-fixed with 1% osmium tetroxide for 1 h. Tissues were then dehydrated through a graded ethanol series, incubated in acetone, and embedded in epoxy resin. Ultrathin sections were mounted on copper grids and imaged using a Hitachi HT7800 transmission electron microscope (Tokyo, Japan).

Setting [6] is: DOX vs CON group, experiment I, p < 0.001.
Where [7] appears, read: experiment II, DOX vs CON, co-treatments vs DOX.

As for `COc1cccc2c1C(=O)c1c(O)c3c(c(O)c1C2=O)C[C@@](O)(C(=O)CO)C[C@@H]3O[C@H]1C[C@H](N)[C@H](O)[C@H](C)O1` [DOX, Doxorubicin], the “phenylalanine levels in hepatic and cardiac tissues and plasma” value in the data set on phenylalanine metabolism is given as “significant elevation”. For the same molecule, the cell viability result in the data set on AML12 cells [1] is recorded as “significant reduction”. Besides, the IC50 in the data set on AML12 cells [1] (Mus musculus, AML12, read-out: DOX concentration that caused 50% cell death (IC50)) stood at 1000 nM. For the same molecule, in data set [2], the “H&E and Masson's trichrome staining of cardiac tissue” value is “inflammatory infiltration and increased collagen deposition”. Also, in the data set with DOX-induced CHF rats, the “serum ALT and AST levels” value is reported as “increased”. Further, the LVFS in [3] is < 30% and 25.62%. For the same molecule, in “Rat body weight”, the body weight result is reported as “significant reduction”. For the same molecule, in the data set on AML12 cells [4], the MDA levels result is “increase” and the SOD activity entry is “significant reduction”. Further, in data set [5] (setting [6]), the “ectopic heart PAH expression” value was “significantly increased” and the “liver PAH expression” value is recorded as “significantly decreased”. Further, in [5] (setting [7]), the “PAH expression in heart tissue” value is reported as “significantly raising” and the “PAH expression in liver tissue” value was “substantially lowered”. In addition, in the data set on heart tissues, the “mitochondrial ultrastructure of heart (electron microscopy)” value was “mitochondrial shrinkage, increased membrane density, and marked reduction and shortening of cristae with focal vacuolization”.
